Assay results: patent US20080280996A1, “Use of Carophyllenes in the Manufacture of Medicaments and Treatment of Bodily Conditions of Inflammation and Inflammatory Pain” (priority 2004, published 2008)

Assays:
Type in all cases: in vivo
[1] = test system: bradykinin-induced paw oedema; assay: Bradykinin oedema in mouse paw; conditions: mice, bradykinin 3 nmol/paw intraplantar, captopril pre-treatment; 50 mg/kg orally 1 h before; 10 min to 48 h
Experimental: The test used below is described by Cunha et. al. in the publication Life Sci. 70:159-169, 2001. Male 25 g-35 g mice were slightly sedated with ether and were injected 50 μl saline containing bradykinin (BK, 3 nmol/paw), intraplantar, in the right paw. The left paw received the same volume of saline and was taken as negative control. The swelling was measured with a plethysmometer (manufacturer: Ugo Basile, Italy) along various time points intervals after the injection of the phlogistic agent. The difference between the volumes of the right and the left paw were quantified (in ml) and taken as an index of oedema. One hour before the test the animals were systemically treated (orally) with 50 mg/kg of alpha-humulene or with trans-caryophyllene. The animals were pre-treated with 5 mg/kg of captopril, injected subcutaneously, 1 hour before the test, in order to avoid degradation of […]. Graphs 3A and 3B below compare the inhibition of the volume of the oedema by administration of alpha-humulene (3A) or trans-caryophyllene (3B). Oedema volume measurement time intervals were 10, 20, 30, 60, and 120 min, 24 h and 48 h. Each point represents the average of 5 animals, and the vertical bars the mean standard error deviation.

[2] = test system: COX-2; assay: Expression of enzyme COX-2 in carrageenin-injected rat paw (Western blot); conditions: 50 mg/kg orally 60 minutes before carrageenin 300 μg/paw, subcutaneous paw tissue
Experimental: The expression of enzymes COX-2 and iNOS were determined by Western blot according to the methodology described by Medeiros et. al. in the publication Circ Res. 28:1375-1382, 2004. Male 160-180 g rats were orally given 50 mg/kg of trans-caryophyllene. Animals treated with 0.9% (0.1 ml/10 g) saline were used as control. Another group of animals was treated with 0.5 mg/kg dexamethasone, subcutaneously, 4 hours before the test, and used as positive control. After 60 minutes, the animals received intraplantar injections of 100 μl of carrageenin (300 μg/paw) and were sacrificed after 180 minutes, and subcutaneous paw tissue was removed […] after the carrageenin injection. […] The protein concentration was determined by the Bradford method (BioRad Laboratories Inc. kit, Milan, Italy). […] The bands thus obtained were quantified using a chemoluminescence kit and densitometry analysis (relative units) in radiographic films. Graph 10 below (each result represents the average of 5 animals, and the vertical bars the mean standard error deviation) compares inhibition of expression of the COX2 enzymes, obtained by the administration of alpha-humulene and trans-caryophyllene, when evaluated in the subcutaneous tissue or the paw injected with carrageenin, compared to the expression of COX2 induced by carrageenin obtained by treatment with dexomethasone.

[3] = test system: PGE2; assay: Levels of PGE2 in carrageenin-injected rat paw exsudate (Elisa); conditions: 50 mg/kg orally 60 minutes before carrageenin 300 μg/paw, paw exsudate after 180 minutes
Experimental: The test used below is described by Pinheiro et. al. in the publication Inflamm. Res. 51: 603-610, 2002, with minor modifications. Male 160-180 g rats were orally given 50 mg/kg of trans-caryophyllene. Animals treated with 0.9% (0.1 ml/10 g) saline were used as control. Another group of animals was treated with 0.5 mg/kg dexamethasone, subcutaneously, 4 hours before the test, and used as positive control. After 60 minutes, the animals received intraplantar injections of 100 μl of carrageenin (300 μg/paw) and were sacrificed after 180 minutes. The exsudate of the paws was collected by dialysis with the help of two polyethylene canulas, and was utilized for the quantification of PGE2, with an Elisa kit, according to the manufacturer's instructions (R & D Systems®, USA). The tests were performed in duplicate, and repeated three times. The answers are expressed in pg/mg of tissue. Graph 9 below (each result represents the average of 5 animals, and the vertical bars the mean standard error deviation) compares inhibition of the PGE2 level growth induced by carrageenin in the paws of rats, by administration of alpha-humulene and trans-caryophyllene, compared to the effect obtained by treatment with dexomethasone.

[4] = test system: PAF-induced oedema; assay: Platelet aggregation factor (PAF) oedema in mouse paw; conditions: mice, PAF 3 nmol/paw intraplantar; 50 mg/kg orally 1 h before; 30 to 120 min
Experimental: The test used below is described by Cunha et. al. in the publication Life Sci. 70:159-169, 2001. Male 25 g-35 g mice were slightly sedated with ether and were injected 50 μl saline containing platelet aggregation factor (PAF, 3 nmol/paw), intraplantar, in the right paw. The left paw received the same volume of saline and was taken as negative control. The swelling was measured with a plethysmometer (manufacturer: Ugo Basile, Italy) along various time intervals after the injection of the phlogistic agent. The difference between the volumes of the right and the left paw were quantified (in ml) and taken as an index of oedema. One hour before the test the animals were systemically treated (orally) with 50 mg/kg of alpha-humulene or trans-caryophyllene. Graph 5 below compares the inhibition of the volume of the oedema by administration of alpha-humulene (SA) and trans-caryophyllene (5B). Oedema volume measurement time intervals were 30, 45, 60, and 120 min. Each point represents the average of 5 animals, and the vertical bars the mean standard deviation.

SMILES | bradykinin-induced paw oedema [1] | expression of enzymes COX2 induced by carrageenin in the paws of rats [2] | growth of PGE2 levels induced by carrageenin in the paws of rats [3] | PAF-induced oedema formation [4]
C=C1CC/C=C(\C)CC[C@@H]2[C@@H]1CC2(C)C [trans-caryophyllene] | markedly reduced bradykinin-induced paw oedema | markedly inhibited the expression | markedly inhibited the growth of PGE2 levels | markedly reduced PAF-induced oedema formation
C/C1=C\CC/C(C)=C/CC(C)(C)/C=C/C1 [alpha-humulene] | markedly reduced bradykinin-induced paw oedema | markedly inhibited the expression | markedly inhibited the growth of PGE2 levels | markedly reduced PAF-induced oedema formation
